According to patent US9067908B2, “Polyphenolic bioprecursors” (RHODIA CHIMIE, priority 2005, dated 2015):
“Also recorded” adds a separate entry of the source. Read-outs that look alike come from different tables or passages of the source.

How the values were obtained:
[1] = tested on: Stratum corneum enzymatic extract; test: Bio-hydrolysis with the cutaneous enzymes obtained by tape stripping; details: for Bio-hydrolysis Rate (%): 35° C.
Protocol: (§1) Samples of Stratum corneum are taken with surgical sparadrap (type Blenderm 3M Health Care, St. Paul, Minn., USA). The buffers used in the bio-hydrolysis trials are: 50 mM Tris(tris[hydroxymethyl]aminomethane) pH 7.3 and pH 8; 50 mM Na-acetate pH 5.5; 50 mM MES (2-[N-morpholino]-ethanesulphonic) acid pH 6 and 50 mM phosphate pH 6.5.
(§2) The precursors are solubilised in acetonitrile at a concentration of 1 g/l. For the bio-hydrolysis trials 50 μl of substrate and 50 μl of acetonitrile in 900 μl of enzymatic extract in the buffer at a chosen pH are added. The reaction mixtures are incubated at 35° C. without stirring and shielded from the light. The evolution of the bio-hydrolysis is determined by HPLC (high-performance liquid chromatography) with reverse phase polarity. The controls are effected in the same solutions without enzymatic extracts of skin, in order to determine the chemical stability of the products.

[2] = tested on: Stratum corneum enzymatic extract
Protocol: as §1, §2

[3] = Solubility of precursor in the bio-hydrolysis medium; format: physicochemical
From the text: Resveratrol trilipoate is obtained via lipoic acid chloride prepared in situ under argon at ambient temperature in dichloromethane. The acylation reaction leads to a mixture of the products of coupling (phenolic and recorcinic monolipoates, dilipoates and trilipoates). The trilipoates were obtained after chromatography on silica. The product was not characterised for reasons of insolubility. For the same reasons it cannot be bio-hydrolysed (see Table 1).

| Active substance(s) released by bio-hydrolyse: Polyphenol (PP) [2] | Bio-hydrolysis Rate (%) [2] [%] | SMILES | Active substance(s) released by bio-hydrolyse: A [1] | Active substance(s) released by bio-hydrolyse: B [1] | Active substance(s) released by bio-hydrolyse: Polyphenol (PP) [1] | further results |
| --- | --- | --- | --- | --- | --- | --- |
| – | – | CC(=O)Oc1cc(OC(=O)CCC(=O)Oc2c(C)c(C)c3c(c2C)CCC(C)(CCCC(C)CCCC(C)CCCC(C)C)O3)c2c(=O)cc(-c3ccc(OC(C)=O)c(OC(C)=O)c3)oc2c1 (stereo not drawn) [Lut(Ac)3-succinate-Vit E, 7-acetoxy-2-(3,4-diacetoxyphenyl)-4-oxo-4H-chromen-5-yl 2,5,7,8-tetramethyl-2-(4,8,12-trimethyltridecyl)-3,4-dihydro-2H-chromen-6-yl succinate] | Acetate +; also recorded: Succinate | Vitamin E | Luteolin | Bio-hydrolysis Rate (%) ([1]; bio-hydrolysis time 5 h): 70% |
| Resveratrol | 95 | CCCCCC(=O)Oc1ccc(/C=C/c2cc(OC(C)=O)cc(OC(C)=O)c2)cc1 [Res(Ac)2-caproate, 3,5-resveratrol diacetate-4′-caproate] | – | – | – | – |
| – | – | COc1cc(/C=C/C(=O)Oc2ccc(/C=C/c3cc(OC(C)=O)cc(OC(C)=O)c3)cc2)ccc1OC(C)=O [Res(Ac)2-ferulate(Ac), (E)-4-((E)-3,5-diacetoxystyryl)phenyl 3-(4-acetoxy-3-methoxyphenyl)acrylate] | Acetate | Ferulic acid | Resveratrol | Bio-hydrolysis Rate (%) ([1]; bio-hydrolysis time 6.5 h): 71% |
| – | – | CC(=O)Oc1cc(/C=C/c2ccc(OC(=O)CCCCC3CCSS3)cc2)cc(OC(C)=O)c1 (stereo not drawn) [Res(Ac)2-lipoate, (E)-4-(3,5-diacetoxystyryl)phenyl-5-(1,2-dithiolan-3-yl)pentanoate] | Acetate | Lipoate | lipoic acid; also recorded: Resveratrol + | Bio-hydrolysis Rate (%) ([1]; bio-hydrolysis time 48 h): 87% |
| Resveratrol | 98 | CCCCCC(=O)Oc1ccc(/C=C/c2cc(OC(=O)CCCCC)cc(OC(=O)CCCCC)c2)cc1 [Res(caproate)3, 3,5,4′-resveratrol tricaproate, reference compound] | – | – | – | Active substance(s) released by bio-hydrolyse: A [2]: Caproate |
| – | – | O=C(CCCCC1CCSS1)Oc1ccc(/C=C/c2cc(OC(=O)CCCCC3CCSS3)cc(OC(=O)CCCCC3CCSS3)c2)cc1 (stereo not drawn) [Res(lipoate)3, 3,5,4′-resveratrol trilipoate] | – | – | – | Solubility of precursor in the medium [3]: insolubility |
